The subject of test [1] is acetic acid-induced writhing. Briefly: Acetic acid-induced writhing assay in mice (assay G). It is filed as in vivo. Particulars: s.c. As for the experimental part:
G. Acetic Acid-Induced Writhing Assay in Mice
Analgesic activity against visceral or chemical pain is assessed by application of the test compound prior to application of an i.p. injection of acetic acid. The number of writhing responses that occur in response to acetic acid are counted (see e.g. Barber A. Med. Res. Rev. 1992; 12:525-62 and Ramabadran K. Pharm. Res. 1986,3:263-270).
Background: Writhing tests count abdominal constrictions after an irritant is injected.

Another test deals with vasculitis. Kind of test: Vasculitis model in mice, LPS/TNF-α (assay I). It is filed as in vivo, C57BL/6 mice. The following applies: dose dependent. How it is done: I. Vasculitis Model in Mice
C57BL/6 mice receive an intradermal injection of LPS. On the following day vasculitis is induced by intradermal injection of TNF-α. In addition Evan's blue is injected. 24 hours following the injection of TNF-α mice are scarified. Ear thickness is measured and the degree of vasculitis is assessed by counting petechiae. The content of Evan's blue in the ear tissue is a marker for vascular permeability. Ears are analyzed by histology, FACS and RT-qPCR.

The subject of another test is DSS-induced colitis. Kind of test: DSS-induced colitis in mice (assay K). It is filed as in vivo, C57BL/6 mice. As for the experimental part: K. DSS-Induced Colitis in Mice
Colitis is induced by treatment of C57BL/6 mice with 2.5% dextran sulfate (DSS) in the drinking water for 7 days. Mice are treated with the test item. Weight is monitored daily. At day 8 mice are scarified. A haemocult test is performed. The size of the colon is measured. Colitis is determined using a scoring system in H&E stains.

A further test has as its target Human opiate κ receptors (Homo sapiens, UniProt P41145). Kind of test: κ opioid receptor functional assay, [35S]GTPγS binding (assay C). It is filed as biochemical. (GTPγS is a poorly hydrolysed GTP analogue; its binding reports G protein activation.)
Test [2] relates to oxazolone delayed type hypersensitivity reaction. Kind of test: In vivo model for pruritus associated with the oxazolone model of a delayed type hypersensitivity reaction (assay D). Also on record: species or system mice. How it is done:
D. In Vivo Model for Pruritus Associated with the Oxazolone Model of a Delayed Type Hypersensitivity Reaction
Scratching activity in mice is measured after topical application of the test compound.

Test [3] deals with Imiquimod-induced psoriasis. Kind of test: Imiquimod-induced psoriasis in mice (assay J). It is filed as in vivo, Balb/c mice. The following applies: s.c. or i.v. As for the experimental part: J. Imiquimod-Induced Psoriasis in Mice
Psoriasis in Balb/c mice is induced by daily application of topical Imiquimod for 8 days. Animal are treated with the test items (topical or systemically). Scratching was monitored. On day 9 the skin phenotype is characterized. Skin is analyzed histologically. Lymph nodes are analyzed by flow cytometry and RT-qPCR.

Test [4] deals with arachidonic acid-induced ear inflammation. It is filed as in vivo, mice. The following applies: mouse, in vivo, sc.
The test system of test [5] is UVB-induced inflammatory pain. Briefly: UVB-induced inflammatory pain in rats (assay H). It is filed as in vivo, Sprague-Dawley rats. Particulars: s.c. As for the experimental part: H. UVB-Induced Inflammatory Pain In Rats
Male, Sprague-Dawley rats receive a single exposure of UVB radiation to the left hind paw. Mechanical hyperalgesia is assessed using a digital Randall-Selitto device (dRS). Thermal hyperalgesia is measured using a plantar test apparatus (see e.g. Davies S. L. J. Neurosci. Methods 2005; 148:161-166, Bishop T. Pain 2007; 131:70-82 and Graham I. J. Invest. Dermatol. 2004; 122:183-189).

The test system of test [6] is chronic oxazolone-induced ear inflammation. Kind of test: In vivo model of chronic oxazolone-induced ear inflammation (assay E). Details: species or system mice. How it is done: E. In Vivo Model of Chronic Oxazolone-Induced Ear Inflammation
Mice are challenged several times with oxazolone following an initial sensitization. Ear thickness is measured daily during the treatment period with topical application of the test compound (see e.g. Ottosen E. R. J. Med. Chem. 2003; 46: 5651-5662). At the end of the study ear weight is determined Ears are characterized histologically and by immunofluorescence. Gene expression was quantified (RT-qPCR).

Human opiate κ receptors, sequence (P41145 whole entry): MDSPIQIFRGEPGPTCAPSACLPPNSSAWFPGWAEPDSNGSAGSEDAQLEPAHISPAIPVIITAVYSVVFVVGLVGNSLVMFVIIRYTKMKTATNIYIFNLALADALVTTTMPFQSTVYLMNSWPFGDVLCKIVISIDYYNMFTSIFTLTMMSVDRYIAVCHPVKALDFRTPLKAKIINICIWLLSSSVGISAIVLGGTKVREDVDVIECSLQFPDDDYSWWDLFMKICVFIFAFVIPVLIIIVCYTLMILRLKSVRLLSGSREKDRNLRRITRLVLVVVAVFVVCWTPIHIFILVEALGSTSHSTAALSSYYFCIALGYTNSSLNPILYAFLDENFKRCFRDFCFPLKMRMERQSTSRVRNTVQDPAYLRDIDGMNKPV

Turning to `COC(=O)N1CCN(C(=O)Cc2ccc(Cl)c(Cl)c2)[C@@H]2[C@@H](N3CCCC3)CCC[C@@H]21` [Example 89, (4aR,5S,8aS)-methyl 4-(2-(3,4-dichlorophenyl)acetyl)-5-(pyrrolidin-1-yl)octahydroquinoxaline-1(2H)-carboxylate], in test [1], the “number of writhing responses” value is “significant, dose dependent reduction”. Also, in the test on vasculitis, the ear thickness entry is on record as “reduction”, the “inflammatory infiltrate (histology)” value was “reduced inflammatory infiltrate” and the number of petechiae result is listed as “reduced number”. For the same compound, the weight loss result in the test on DSS-induced colitis (compared to vehicle control) was “decreased weight loss”. The “reduction in colon size induced by DSS” value in the test on DSS-induced colitis (mouse, in vivo) is “normalized”. Also, at Human opiate κ receptors, the “% activation functional assay at 1 μM” value is listed as 100%. In addition, on Human opiate κ receptors (0.5 h, read-out: % activation functional assay at 1 μM), the activation at 1 µM was determined as 107%. Also, the “number of scratch events” value in test [2] (mice, topical) was “significantly reduced”. Besides, the ear thickness result in [2] (mice, topical, compared to vehicle treated animals) was “accelerated decrease”. The “epidermal thickness, inflammatory infiltrate and epidermal oedema (histology)” value in test [2] (semi-quantitative analysis) is “reduction”. Further, in [3], the scratch numbers entry is listed as “lower”. Moreover, the “size of the rete ridges” value in test [3] (compared to vehicle control) is reported as “decreased size”. In [4], the “increase in ear thickness” value was “prevented the increase” and the scratching activity result is “significantly reduced”. Also, in test [5], the thermal hyperalgesia entry is “significant, dose dependent reduction”. For the same compound, the “inflammatory infiltrate (CD117+ mast cells and Gr-1+ neutrophils)” value in [6] (immunohistochemistry) is on record as “dose dependent reduction”. Moreover, the ear thickness result in test [6] (mice, topical, compared to vehicle control) was “dose dependent decreased”. In addition, the “epidermal thickness, inflammatory infiltrate and epidermal oedema (histology)” value in test [6] (semi-quantitative analysis) is on record as “reduction”.

The values are drawn from US20160122307A1, “PERHYDROQUINOXALINE DERIVATIVES” (DR. AUGUST WOLFF GMBH & CO. KG ARZNEIMITTEL, priority 2013, published 2016).
